Reference: patent publication US4479943A, “3-Demethoxyistamycin B, the 2"-N-formimidoyl derivative thereof and pharmaceutical composition containing same” (Zaidan Hojin Biseibutsu Kagaku Kenkyu Kai, priority 1982, dated 1984)
≈ marks a conversion by molar mass, not a printed value.

Assays:
[1] = test system: Staphylococcus aureus FDA 209P; assay: Antibacterial MIC, standard serial dilution; format: cell-based; conditions: nutrient agar, 37° C., 17 hours, as free base
[2] = test system: Staphylococcus aureus Smith; assay: Antibacterial MIC, standard serial dilution; format: cell-based; conditions: nutrient agar, 37° C., 17 hours, as free base
[3] = test system: Staphylococcus aureus Ap01; assay: Antibacterial MIC, standard serial dilution; format: cell-based; conditions: nutrient agar, 37° C., 17 hours, as free base
[4] = test system: Staphylococcus epidermidis 109; assay: Antibacterial MIC, standard serial dilution; format: cell-based; conditions: nutrient agar, 37° C., 17 hours, as free base
[5] = test system: Micrococcus flavus FDA 16; assay: Antibacterial MIC, standard serial dilution; format: cell-based; conditions: nutrient agar, 37° C., 17 hours, as free base
[6] = test system: Sarcina lutea PCI 1001; assay: Antibacterial MIC, standard serial dilution; format: cell-based; conditions: nutrient agar, 37° C., 17 hours, as free base
[7] = test system: Bacillus anthracis; format: cell-based; conditions: nutrient agar, 37° C., 17 hours, as free base
[8] = test system: Bacillus subtilis PCI 219; assay: Antibacterial MIC, standard serial dilution; format: cell-based; conditions: nutrient agar, 37° C., 17 hours, as free base
[9] = test system: Bacillus subtilis NRRL B-558; assay: Antibacterial MIC, standard serial dilution; format: cell-based; conditions: nutrient agar, 37° C., 17 hours, as free base
[10] = test system: Bacillus cereus ATCC 10702; assay: Antibacterial MIC, standard serial dilution; format: cell-based; conditions: nutrient agar, 37° C., 17 hours, as free base
[11] = test system: Corynebacterium bovis 1810; assay: Antibacterial MIC, standard serial dilution; format: cell-based; conditions: nutrient agar, 37° C., 17 hours, as free base
[12] = test system: Mycobacterium smegmatis ATCC 607; assay: Antibacterial MIC, standard serial dilution; format: cell-based; conditions: nutrient agar, 37° C., 17 hours, as free base
[13] = test system: Escherichia coli NIHJ; assay: Antibacterial MIC, standard serial dilution; format: cell-based; conditions: nutrient agar, 37° C., 17 hours, as free base
[14] = test system: Escherichia coli K-12; assay: Antibacterial MIC, standard serial dilution; format: cell-based; conditions: nutrient agar, 37° C., 17 hours, as free base
[15] = test system: Escherichia coli K-12 R388; assay: Antibacterial MIC, standard serial dilution; format: cell-based; conditions: nutrient agar, 37° C., 17 hours, as free base
[16] = test system: Escherichia coli K-12 J5R11-2; assay: Antibacterial MIC, standard serial dilution; format: cell-based; conditions: nutrient agar, 37° C., 17 hours, as free base
[17] = test system: Escherichia coli K-12 ML1629; assay: Antibacterial MIC, standard serial dilution; format: cell-based; conditions: nutrient agar, 37° C., 17 hours, as free base
[18] = test system: Escherichia coli K-12 ML1630; assay: Antibacterial MIC, standard serial dilution; format: cell-based; conditions: nutrient agar, 37° C., 17 hours, as free base
[19] = test system: Escherichia coli K-12 ML1410; assay: Antibacterial MIC, standard serial dilution; format: cell-based; conditions: nutrient agar, 37° C., 17 hours, as free base
[20] = test system: Escherichia coli K-12 LA290 R55; assay: Antibacterial MIC, standard serial dilution; format: cell-based; conditions: nutrient agar, 37° C., 17 hours, as free base
[21] = test system: Escherichia coli K-12 LA290 R56; assay: Antibacterial MIC, standard serial dilution; format: cell-based; conditions: nutrient agar, 37° C., 17 hours, as free base
[22] = test system: Escherichia coli W677; assay: Antibacterial MIC, standard serial dilution; format: cell-based; conditions: nutrient agar, 37° C., 17 hours, as free base
[23] = test system: Escherichia coli JR66/W677; assay: Antibacterial MIC, standard serial dilution; format: cell-based; conditions: nutrient agar, 37° C., 17 hours, as free base
[24] = test system: Escherichia coli K-12 C600 R135; assay: Antibacterial MIC, standard serial dilution; format: cell-based; conditions: nutrient agar, 37° C., 17 hours, as free base
[25] = test system: Escherichia coli JR225; assay: Antibacterial MIC, standard serial dilution; format: cell-based; conditions: nutrient agar, 37° C., 17 hours, as free base
[26] = test system: Klebsiella pneumoniae PCI602; assay: Antibacterial MIC, standard serial dilution; format: cell-based; conditions: nutrient agar, 37° C., 17 hours, as free base
[27] = test system: Klebsiella pneumoniae 22#3038; assay: Antibacterial MIC, standard serial dilution; format: cell-based; conditions: nutrient agar, 37° C., 17 hours, as free base
[28] = test system: Shigella dysenteriae JS11910; assay: Antibacterial MIC, standard serial dilution; format: cell-based; conditions: nutrient agar, 37° C., 17 hours, as free base
[29] = test system: Salmonella typhi T-63; assay: Antibacterial MIC, standard serial dilution; format: cell-based; conditions: nutrient agar, 37° C., 17 hours, as free base
[30] = test system: Salmonella enteritidis 1891; assay: Antibacterial MIC, standard serial dilution; format: cell-based; conditions: nutrient agar, 37° C., 17 hours, as free base
[31] = test system: Proteus vulgaris 0X19; assay: Antibacterial MIC, standard serial dilution; format: cell-based; conditions: nutrient agar, 37° C., 17 hours, as free base
[32] = test system: Proteus rettgeri GN311; assay: Antibacterial MIC, standard serial dilution; format: cell-based; conditions: nutrient agar, 37° C., 17 hours, as free base
[33] = test system: Proteus rettgeri GN466; assay: Antibacterial MIC, standard serial dilution; format: cell-based; conditions: nutrient agar, 37° C., 17 hours, as free base
[34] = test system: Serratia marcescens; assay: Antibacterial MIC, standard serial dilution; format: cell-based; conditions: nutrient agar, 37° C., 17 hours, as free base
[35] = test system: Serratia sp. SOU; assay: Antibacterial MIC, standard serial dilution; format: cell-based; conditions: nutrient agar, 37° C., 17 hours, as free base
[36] = test system: Serratia sp. 4; assay: Antibacterial MIC, standard serial dilution; format: cell-based; conditions: nutrient agar, 37° C., 17 hours, as free base
[37] = test system: Providencia sp. Pv16; assay: Antibacterial MIC, standard serial dilution; format: cell-based; conditions: nutrient agar, 37° C., 17 hours, as free base
[38] = test system: Providencia sp. 2991; assay: Antibacterial MIC, standard serial dilution; format: cell-based; conditions: nutrient agar, 37° C., 17 hours, as free base
[39] = test system: Pseudomonas aeruginosa A3; assay: Antibacterial MIC, standard serial dilution; format: cell-based; conditions: nutrient agar, 37° C., 17 hours, as free base
[40] = test system: Pseudomonas aeruginosa No. 12; assay: Antibacterial MIC, standard serial dilution; format: cell-based; conditions: nutrient agar, 37° C., 17 hours, as free base
[41] = test system: Pseudomonas aeruginosa H9; assay: Antibacterial MIC, standard serial dilution; format: cell-based; conditions: nutrient agar, 37° C., 17 hours, as free base
[42] = test system: Pseudomonas aeruginosa H11; assay: Antibacterial MIC, standard serial dilution; format: cell-based; conditions: nutrient agar, 37° C., 17 hours, as free base
[43] = test system: Pseudomonas aeruginosa TI-13; assay: Antibacterial MIC, standard serial dilution; format: cell-based; conditions: nutrient agar, 37° C., 17 hours, as free base
[44] = test system: Pseudomonas aeruginosa GN315; assay: Antibacterial MIC, standard serial dilution; format: cell-based; conditions: nutrient agar, 37° C., 17 hours, as free base
[45] = test system: Pseudomonas aeruginosa 99; assay: Antibacterial MIC, standard serial dilution; format: cell-based; conditions: nutrient agar, 37° C., 17 hours, as free base
[46] = test system: Pseudomonas aeruginosa B-13; assay: Antibacterial MIC, standard serial dilution; format: cell-based; conditions: nutrient agar, 37° C., 17 hours, as free base
[47] = test system: Pseudomonas aeruginosa 21-75; assay: Antibacterial MIC, standard serial dilution; format: cell-based; conditions: nutrient agar, 37° C., 17 hours, as free base
[48] = test system: Pseudomonas aeruginosa PST1; assay: Antibacterial MIC, standard serial dilution; format: cell-based; conditions: nutrient agar, 37° C., 17 hours, as free base
[49] = test system: Pseudomonas aeruginosa ROS 134/PU21; assay: Antibacterial MIC, standard serial dilution; format: cell-based; conditions: nutrient agar, 37° C., 17 hours, as free base
[50] = test system: Pseudomonas aeruginosa K-Ps 102; assay: Antibacterial MIC, standard serial dilution; format: cell-based; conditions: nutrient agar, 37° C., 17 hours, as free base
[51] = test system: Pseudomonas maltophilia GN 907; assay: Antibacterial MIC, standard serial dilution; format: cell-based; conditions: nutrient agar, 37° C., 17 hours, as free base
[52] = test system: bacteria; conditions: in words; earlier work; cited from earlier work

CNCC1CCC(N)C(OC2C(N)CC(O)C(N(C)C(=O)CN)C2O)O1 (stereo not shown) [Demethyl ista B, 3-O-demethylistamycin B]
MIC [1]: 0.39 µg/mL (≈ 1.04 µM) | MIC [2]: 0.39 µg/mL (≈ 1.04 µM) | MIC [3]: 0.39 µg/mL (≈ 1.04 µM) | MIC [4]: 0.39 µg/mL (≈ 1.04 µM) | MIC [5]: 3.13 µg/mL (≈ 8.34 µM) | MIC [6]: 0.39 µg/mL (≈ 1.04 µM) | MIC [7]: 0.78 µg/mL (≈ 2.08 µM) | MIC [8]: 0.39 µg/mL (≈ 1.04 µM) | MIC [9]: 0.39 µg/mL (≈ 1.04 µM) | MIC [10]: 1.56 µg/mL (≈ 4.15 µM) | MIC [11]: 0.39 µg/mL (≈ 1.04 µM) | MIC [12]: 0.78 µg/mL (≈ 2.08 µM) | MIC [13]: 0.39 µg/mL (≈ 1.04 µM) | MIC [14]: 0.78 µg/mL (≈ 2.08 µM) | MIC [15]: 0.78 µg/mL (≈ 2.08 µM) | MIC [16]: 1.56 µg/mL (≈ 4.15 µM) | MIC [17]: 1.56 µg/mL (≈ 4.15 µM) | MIC [18]: 3.13 µg/mL (≈ 8.34 µM) | MIC [19]: 3.13 µg/mL (≈ 8.34 µM) | MIC [20]: 0.78 µg/mL (≈ 2.08 µM) | MIC [21]: 0.78 µg/mL (≈ 2.08 µM) | MIC [22]: 0.78 µg/mL (≈ 2.08 µM) | MIC [23]: 1.56 µg/mL (≈ 4.15 µM) | MIC [24]: 1.56 µg/mL (≈ 4.15 µM) | MIC [25]: 0.78 µg/mL (≈ 2.08 µM) | MIC [26]: 1.56 µg/mL (≈ 4.15 µM) | MIC [27]: 3.13 µg/mL (≈ 8.34 µM) | MIC [28]: 3.13 µg/mL (≈ 8.34 µM) | MIC [29]: 0.39 µg/mL (≈ 1.04 µM) | MIC [30]: 1.56 µg/mL (≈ 4.15 µM) | MIC [31]: 0.39 µg/mL (≈ 1.04 µM) | MIC [32]: 0.39 µg/mL (≈ 1.04 µM) | MIC [33]: 0.39 µg/mL (≈ 1.04 µM) | MIC [34]: 1.56 µg/mL (≈ 4.15 µM) | MIC [35]: 6.25 µg/mL (≈ 16.6 µM) | MIC [36]: 12.5 µg/mL (≈ 33.3 µM) | MIC [37]: 0.78 µg/mL (≈ 2.08 µM) | MIC [38]: 1.56 µg/mL (≈ 4.15 µM) | MIC [39]: 0.20 µg/mL (≈ 0.533 µM) | MIC [40]: 12.5 µg/mL (≈ 33.3 µM) | MIC [41]: 12.5 µg/mL (≈ 33.3 µM) | MIC [42]: 25 µg/mL (≈ 66.6 µM) | MIC [43]: 6.25 µg/mL (≈ 16.6 µM) | MIC [44]: 6.25 µg/mL (≈ 16.6 µM) | MIC [45]: 25 µg/mL (≈ 66.6 µM) | MIC [46]: 25 µg/mL (≈ 66.6 µM) | MIC [47]: 25 µg/mL (≈ 66.6 µM) | MIC [48]: 12.5 µg/mL (≈ 33.3 µM) | MIC [49]: 50 µg/mL (≈ 133 µM) | MIC [50]: 6.25 µg/mL (≈ 16.6 µM) | MIC [51]: 100 µg/mL (≈ 266 µM) | antibacterial activity [52]: active not only against Pseudomonas aeruginosa but also against a variety of resistant bacteria
